{"source": "patent US10059699B2", "about": "“Tetrahydroquinoline derivatives as bromodomain inhibitors” (GlaxoSmithKline Intellectual Property (No.2) Limited, priority 2014, dated 2018)", "key": {"IL-6": {"test_system": "IL-6", "experiment": "LPS induced secretion of IL-6 from whole blood", "assay_type": "cell-based", "details": "human whole blood, LPS 200 ng/mL, n=6; read-out: pIC50, LPS induced IL-6 secretion (converted)", "description": "Activation in whole blood of predominantly monocytic cells by agonists of toll-like receptors such as bacterial lipopolysaccharide (LPS) results in production of key inflammatory mediators, including IL-6. Such pathways are widely considered to be central to the pathophysiology of a range of auto-immune and inflammatory disorders.\nHuman Whole Blood from 2 donors (n=2) is collected using Sodium heparin as anti-coagulent (Wockhardt cat# FP1712) (10 units of heparin/mL of blood). Compounds were prepared as [10 mM] DMSO stocks and then diluted such that the top starting concentration was [1.4 mM] followed by 8×3-fold dilutions in DMSO. Final assay concentrations start at [10 μM] for all compounds. 1 μL diluted compound was added per well in a 96-well U bottom plate. 1 μL DMSO only was added to column 10 (+ve control) and 1-((2S,4R)-2-methyl-4-(phenylamino)-6-(4-(piperidin-1-ylmethyl)phenyl)-3,4-dihydroquinolin-1(2H)-yl)ethanone (for a preparation see Compound 28, J. Med. Chem. 2014, 57, 8111-8131, 1 μL, 1.4 mM) added to column 11 (−ve control). […] 150 μL of 2×MSD Read Buffer T (stock 4×MSD Read Buffer T was diluted 50:50 with de-ionised water) was then added to each well and the plates read on the MSD Sector Imager 6000. Concentration response curves for each compound were generated from the data using internal XC50 analysis and an IC50 value was calculated."}, "[1]": {"test_system": "biphenotypic B myelomonocytic leukaemia cells (MV-4-11)", "experiment": "Cancer cell line proliferation assay, MV-4-11", "assay_type": "cell-based", "details": "Homo sapiens, MV4-11, MV-4-11 cells, 72 hours, CellTiter Glo, n = 3", "protocol": "(§1) The impact of the compound of Examples 7 and 14 on cancer cell proliferation was determined using patient derived NUT midline carcinoma cells (11060), multiple myeloma cells (OPM-2, DSMZ) and biphenotypic B myelomonocytic leukaemia cells (MV-4-11, ATCC) in a 72 hour proliferation assay. 11060 and OPM-2 cells were maintained in RPMI 1640 medium (Invitrogen) supplemented with 10% HI-FBS (Heat-Inactivated Fetal Bovine Serum, Hyclone) and 2 mM L-glutamine (Invitrogen) at 37° C. and an atmosphere of 5% CO2. MV-4-11 cells were maintained in IMDM media supplemented with 10% HI-FCS, 2 mM L-glutamine, 1× Non-essential amino acids (Invitrogen) and 1× sodium pyruvate (1 mM) (Invitrogen). Cells were diluted to 1.11×10^5 cells/mL and 90 μL/well plated into black sided, clear bottomed 96 well tissue culture plates (Corning), using growth media supplemented with penicillin/streptomycin (Invitrogen). Cells were incubated overnight at 37° C. and in one plate, ATP levels were measured using the CellTiter Glo assay (Promega) according to the manufacturer's instructions, to give a baseline reading (t=0). 3-fold serial dilutions of compounds ranging from 6 mM to 0.3 μM were prepared in 100% DMSO. The DMSO dilution series was diluted 20-fold in growth media before 10 μl of the resulting dilutions were added to the appropriate wells of the remaining cell plates. The final compound concentrations in the wells ranged from 30 μM to 1.5 nM in 0.5% DMSO. Cells were incubated with compounds for 72 hours before assaying for ATP content using CellTiter Glo (t=72). CellTiter Glo data from each t=72 time point was normalised to the relevant t=0 time point data, and expressed as % t=0."}, "[2]": {"test_system": "multiple myeloma cells (OPM-2)", "experiment": "Cancer cell line proliferation assay, OPM-2", "assay_type": "cell-based", "details": "Homo sapiens, OPM-2 cells, 72 hours, CellTiter Glo, n = 2", "protocol": "as §1"}, "NMC11060 cells": {"test_system": "NMC11060 cells", "experiment": "Mouse xenograft tumour assay (NMC)", "assay_type": "in vivo", "details": "QD for 21 days, NOD/SCID mouse, day 21", "protocol": "1×10^7 NMC11060 cells, in 200 μl of 75% matrigel, were injected subcutaneously into each NOD/SCID mouse. Randomised oral administration of vehicle formulation, 1% Methycellulose (MC), or compound was initiated from the day tumour volume reached between 160-301 mm^3. Tumour volume was then measured every third day until either 21 days post inoculation or tumour volume had surpassed approximately 1000 mm^3.\nTumour growth inhibition=100−mean tumor volume of treatment group/mean tumour volume of control group×100. P values are derived from coefficient of variation analysis using software PASS 12, comparing vehicle against drug treated group. Based on day 21,* p<0.05, **p<0.01 and ***p<0.001"}, "cytochrome P450 3A4": {"target": "cytochrome P450 3A4 (Homo sapiens, UniProt P08684)", "sequence (P08684 whole entry)": "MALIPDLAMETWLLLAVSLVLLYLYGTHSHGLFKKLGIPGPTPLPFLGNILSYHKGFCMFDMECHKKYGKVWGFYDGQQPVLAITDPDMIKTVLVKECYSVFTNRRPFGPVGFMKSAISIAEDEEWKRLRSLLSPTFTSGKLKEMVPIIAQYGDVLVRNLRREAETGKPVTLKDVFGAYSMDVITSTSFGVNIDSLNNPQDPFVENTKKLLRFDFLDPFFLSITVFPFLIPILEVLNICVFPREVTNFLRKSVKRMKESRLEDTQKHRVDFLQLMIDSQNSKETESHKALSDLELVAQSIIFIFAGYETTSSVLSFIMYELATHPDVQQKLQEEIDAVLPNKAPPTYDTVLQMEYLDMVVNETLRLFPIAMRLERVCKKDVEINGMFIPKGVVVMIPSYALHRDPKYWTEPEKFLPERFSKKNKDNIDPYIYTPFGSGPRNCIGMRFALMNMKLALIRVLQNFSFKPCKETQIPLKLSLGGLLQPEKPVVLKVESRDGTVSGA", "experiment": "Cytochrome P450 3A4 metabolism dependent inhibition", "assay_type": "in vitro ADME"}, "[3]": {"details": "full curve fit, read-out: Cellular Proliferation: pIC50 (converted)"}, "[4]": {"details": "read-out: Cellular Proliferation: gpIC50 (converted)"}}, "note": "Like-named read-outs stand apart in the source and are kept apart here. Marks after values point to notes of the source that are not given here.", "data": [{"smiles": "CC(=O)N1c2ccc(C(N)=O)cc2[C@H](Nc2ncc(Cl)cn2)C[C@@H]1C", "note": "[Example 14, (2S,4R)-1-acetyl-4-((5-chloropyrimidin-2-yl)amino)-2-methyl-1,2,3,4-tetrahydroquinoline-6-carboxamide]", "values": [{"measurement": "IC50", "setting": "IL-6", "value": 200, "unit": "nM"}, {"measurement": "IC50", "setting": "[1]; [3]", "value": 316, "unit": "nM"}, {"measurement": "IC50", "setting": "[1]; [4]", "value": 251, "unit": "nM"}, {"measurement": "IC50", "setting": "[2]; [3]", "value": 200, "unit": "nM"}, {"measurement": "IC50", "setting": "[2]; [4]", "value": 126, "unit": "nM"}, {"measurement": "% TGI", "setting": "NMC11060 cells; 10 mg/kg/day PO", "value": "51* %"}, {"measurement": "% TGI", "setting": "NMC11060 cells; 30 mg/kg/day PO", "value": "93*** %"}, {"measurement": "cytochrome P450 3A4 metabolism dependent inhibition", "setting": "cytochrome P450 3A4", "value": "no cytochrome P450 3A4 metabolism dependent inhibition"}]}]}
